Data on one molecule can be found in paper PMC5218480 (PLoS ONE, 2017).

This test deals with MV-4-11 cells. The test can be described thus: Gene expression microarray analysis (Affymetrix PrimeView) and GSEA. It is filed as cell-based, human. Also noted: RFU PODN (11730768_x_at) / Fold change /veh PODN (11730768_x_at) / RFU LINC00158 (11744669_a_at) / Fold change /veh LINC00158 (11744669_a_at) / RFU DUSP10 (11751237_a_at) / Fold change /veh DUSP10 (11751237_a_at) / RFU ID3 (11757404_x_at) / Fold change /veh ID3 (11757404_x_at) / RFU PLEKHG5 (11737974_s_at) / Fold change /veh PLEKHG5 (11737974_s_at) / RFU LRRC4B (11730491_at) / Fold change /veh LRRC4B (11730491_at) / RFU GIMAP4 (11747438_a_at) / Fold change /veh GIMAP4 (11747438_a_at) / RFU KRT8 (11758183_x_at) / Fold change /veh KRT8 (11758183_x_at) / RFU CNN1 (11734310_a_at) / Fold change /veh CNN1 (11734310_a_at) / RFU VPS37D (11726825_at) / Fold change /veh VPS37D (11726825_at) / RFU C10orf10 (11716522_x_at) / Fold change /veh C10orf10 (11716522_x_at) / RFU KIR2DL2 /// KIR2DL4 /// KIR2DL5A /// KIR2DL5B /// KIR2DS1 /// KIR2DS2 /// KIR2DS3 /// KIR2DS4 /// KIR3DL3 /// KIR3DL3 /// KIR3DS1 (11738374_at) / Fold change /veh KIR2DL2 /// KIR2DL4 /// KIR2DL5A /// KIR2DL5B /// KIR2DS1 /// KIR2DS2 /// KIR2DS3 /// KIR2DS4 /// KIR3DL3 /// KIR3DL3 /// KIR3DS1 (11738374_at) / RFU C1QL1 (11718748_at) / Fold change /veh C1QL1 (11718748_at) / RFU TMPRSS4 (11747572_a_at) / Fold change /veh TMPRSS4 (11747572_a_at) / RFU HAMP (11756126_x_at) / Fold change /veh HAMP (11756126_x_at) / RFU RNFT2 (11725882_a_at) / Fold change /veh RNFT2 (11725882_a_at) / RFU NR4A2 (11747474_a_at) / Fold change /veh NR4A2 (11747474_a_at) / RFU ABCC12 (11746883_a_at) / Fold change /veh ABCC12 (11746883_a_at) / RFU TMEM136 (11760407_x_at) / Fold change /veh TMEM136 (11760407_x_at) / RFU CLDN22 /// WWC2 (11732394_at) / Fold change /veh CLDN22 /// WWC2 (11732394_at) / RFU HLA-DPB1 (11760878_x_at) / Fold change /veh HLA-DPB1 (11760878_x_at) / RFU SPINT1 (11716480_a_at) / Fold change /veh SPINT1 (11716480_a_at) / RFU GAP43 (11754022_s_at) / Fold change /veh GAP43 (11754022_s_at) / RFU A4GNT (11735810_at) / Fold change /veh A4GNT (11735810_at) / RFU PRB3 (11715151_x_at) / Fold change /veh PRB3 (11715151_x_at) / RFU TUBB4B (11761932_at) / Fold change /veh TUBB4B (11761932_at) / RFU CAPN14 (11732068_a_at) / Fold change /veh CAPN14 (11732068_a_at) / RFU TMCC2 (11721928_a_at) / Fold change /veh TMCC2 (11721928_a_at) / RFU IRGQ (11745062_a_at) / Fold change /veh IRGQ (11745062_a_at) / RFU FAM174B (11720279_a_at) / Fold change /veh FAM174B (11720279_a_at) / RFU TMPRSS4 (11748680_a_at) / Fold change /veh TMPRSS4 (11748680_a_at) / RFU FAM212B (11763350_a_at) / Fold change /veh FAM212B (11763350_a_at) / RFU PLEKHG5 (11743358_a_at) / Fold change /veh PLEKHG5 (11743358_a_at) / RFU ZSCAN30 (11745921_a_at) / Fold change /veh ZSCAN30 (11745921_a_at) / RFU CMKLR1 (11741424_a_at) / Fold change /veh CMKLR1 (11741424_a_at) / RFU LOC101060620 /// MAPK8IP1 (11723275_at) / Fold change /veh LOC101060620 /// MAPK8IP1 (11723275_at) / RFU SPTSSB (11747773_x_at) / Fold change /veh SPTSSB (11747773_x_at) / RFU PRSS12 (11739890_at) / Fold change /veh PRSS12 (11739890_at) / RFU BIN1 (11741810_x_at) / Fold change /veh BIN1 (11741810_x_at) / RFU WNT11 (11732464_a_at) / Fold change /veh WNT11 (11732464_a_at) / RFU C10orf10 (11716521_a_at) / Fold change /veh C10orf10 (11716521_a_at) / RFU C5orf56 (11738089_at) / Fold change /veh C5orf56 (11738089_at) / RFU CYB561 (11721691_x_at) / Fold change /veh CYB561 (11721691_x_at) / RFU ANKRD19P (11752326_a_at) / Fold change /veh ANKRD19P (11752326_a_at) / RFU OR2T12 /// OR2T33 /// OR2T8 (11738714_s_at) / Fold change /veh OR2T12 /// OR2T33 /// OR2T8 (11738714_s_at) / RFU VCAN (11748164_a_at) / Fold change /veh VCAN (11748164_a_at) / RFU JSRP1 (11732532_at) / Fold change /veh JSRP1 (11732532_at) / RFU KRTAP10-11 (11738290_x_at) / Fold change /veh KRTAP10-11 (11738290_x_at) / RFU MYO3A (11730013_a_at) / Fold change /veh MYO3A (11730013_a_at) / RFU EBF3 (11725865_a_at) / Fold change /veh EBF3 (11725865_a_at) / RFU CAMK2N1 (11719241_x_at) / Fold change /veh CAMK2N1 (11719241_x_at) / RFU C5orf56 (11738088_a_at) / Fold change /veh C5orf56 (11738088_a_at) / RFU OLFML3 (11715873_a_at) / Fold change /veh OLFML3 (11715873_a_at) / RFU LOC100653217 /// NTM (11731650_a_at) / Fold change /veh LOC100653217 /// NTM (11731650_a_at) / RFU MAPK11 (11762145_a_at) / Fold change /veh MAPK11 (11762145_a_at) / RFU FIZ1 (11724087_x_at) / Fold change /veh FIZ1 (11724087_x_at) / RFU OASL (11726364_x_at) / Fold change /veh OASL (11726364_x_at) / RFU SOX15 (11748057_x_at) / Fold change /veh SOX15 (11748057_x_at) / RFU CD79A (11719716_a_at) / Fold change /veh CD79A (11719716_a_at) / RFU HIST1H1D (11736915_at) / Fold change /veh HIST1H1D (11736915_at) / RFU CASKIN2 (11723855_a_at) / Fold change /veh CASKIN2 (11723855_a_at) / RFU LOC730098 (11760151_x_at) / Fold change /veh LOC730098 (11760151_x_at) / RFU OR4N2 (11742367_at) / Fold change /veh OR4N2 (11742367_at) / RFU PRRT2 (11749266_a_at) / Fold change /veh PRRT2 (11749266_a_at) / RFU SNX32 (11753110_a_at) / Fold change /veh SNX32 (11753110_a_at) / RFU CDHR5 (11726645_a_at) / Fold change /veh CDHR5 (11726645_a_at) / RFU RCAN1 (11760418_a_at) / Fold change /veh RCAN1 (11760418_a_at) / RFU FAM167A (11723789_a_at) / Fold change /veh FAM167A (11723789_a_at) / RFU FAM26E (11764081_at) / Fold change /veh FAM26E (11764081_at) / RFU ISYNA1 (11749810_s_at) / Fold change /veh ISYNA1 (11749810_s_at) / RFU ACY1 (11761880_at) / Fold change /veh ACY1 (11761880_at) / RFU 11764098_at / Fold change /veh 11764098_at / RFU SAMD14 (11745864_x_at) / Fold change /veh SAMD14 (11745864_x_at) / RFU NPB (11741838_a_at) / Fold change /veh NPB (11741838_a_at) / RFU TMPRSS6 (11731388_a_at) / Fold change /veh TMPRSS6 (11731388_a_at) / RFU KRTAP10-2 (11738614_at) / Fold change /veh KRTAP10-2 (11738614_at) / RFU ARHGAP8 /// PRR5-ARHGAP8 (11727945_x_at) / Fold change /veh ARHGAP8 /// PRR5-ARHGAP8 (11727945_x_at) / RFU KRTAP5-7 /// NADSYN1 (11734609_at) / Fold change /veh KRTAP5-7 /// NADSYN1 (11734609_at) / RFU RASL12 (11751679_a_at) / Fold change /veh RASL12 (11751679_a_at) / RFU CDKN2B (11736163_a_at) / Fold change /veh CDKN2B (11736163_a_at) / RFU PRF1 (11729649_at) / Fold change /veh PRF1 (11729649_at) / RFU, ZNF638 /// ZNF638-IT1 / Fold change vs veh, ZNF638 /// ZNF638-IT1 / RFU, PANK3 / Fold change vs veh, PANK3 / RFU, SH3YL1 / Fold change vs veh, SH3YL1 / RFU, ZEB2 / Fold change vs veh, ZEB2 / RFU, NRIP1 / Fold change vs veh, NRIP1 / RFU, PTTG1IP / Fold change vs veh, PTTG1IP / RFU, CAPN2 / Fold change vs veh, CAPN2 / RFU, MED14 / Fold change vs veh, MED14 / RFU, SNORA58 / Fold change vs veh, SNORA58 / RFU, C1orf63 / Fold change vs veh, C1orf63 / RFU, LRRFIP1 / Fold change vs veh, LRRFIP1 / RFU, NDUFAF7 / Fold change vs veh, NDUFAF7 / RFU, SLC12A2 / Fold change vs veh, SLC12A2 / RFU, IBTK / Fold change vs veh, IBTK / RFU, ESF1 / Fold change vs veh, ESF1 / Fold change vs veh, TMEM50B / RFU, TAOK1 / Fold change vs veh, TAOK1 / RFU, ACBD3 / Fold change vs veh, ACBD3 / RFU, TMA16 / Fold change vs veh, TMA16 / RFU, RWDD3 / Fold change vs veh, RWDD3 / RFU, BCAT1 / Fold change vs veh, BCAT1 / RFU, EDEM3 / Fold change vs veh, EDEM3 / RFU, TMEM33 / Fold change vs veh, TMEM33 / RFU, WDR75 / Fold change vs veh, WDR75 / RFU, AHCTF1 / Fold change vs veh, AHCTF1 / RFU, TFRC / Fold change vs veh, TFRC / RFU, ZDHHC17 / Fold change vs veh, ZDHHC17 / RFU, NOM1 / Fold change vs veh, NOM1 / RFU, ARL8B / Fold change vs veh, ARL8B / RFU, ZBTB11 / Fold change vs veh, ZBTB11 / RFU, TAMM41 / Fold change vs veh, TAMM41 / RFU, KIAA1704 /// LOC100996395 / Fold change vs veh, KIAA1704 /// LOC100996395 / RFU, ING1 / Fold change vs veh, ING1 / RFU, TRMT61B / Fold change vs veh, TRMT61B / RFU, FUBP3 / Fold change vs veh, FUBP3 / RFU, TP53 / Fold change vs veh, TP53 / RFU, TNKS2 / Fold change vs veh, TNKS2 / RFU, ZFP14 / Fold change vs veh, ZFP14 / RFU, ACTR2 / Fold change vs veh, ACTR2 / RFU, PPP3R1 / Fold change vs veh, PPP3R1 / RFU, PIK3R1 / Fold change vs veh, PIK3R1 / RFU, HNRNPA1 / Fold change vs veh, HNRNPA1 / RFU, RNF170 / Fold change vs veh, RNF170 / RFU, ZNF28 / Fold change vs veh, ZNF28 / RFU, RNGTT / Fold change vs veh, RNGTT / RFU, OGT / Fold change vs veh, OGT / RFU, BRD1 / Fold change vs veh, BRD1 / RFU, MARS / Fold change vs veh, MARS / RFU, ZNF655 / Fold change vs veh, ZNF655 / RFU, FAHD1 / Fold change vs veh, FAHD1 / RFU, BDP1 / Fold change vs veh, BDP1 / RFU, LRRCC1 / Fold change vs veh, LRRCC1 / RFU, ARID1A / Fold change vs veh, ARID1A / RFU, ZNF146 / Fold change vs veh, ZNF146 / RFU, ZNF330 / Fold change vs veh, ZNF330 / RFU, GPN3 / Fold change vs veh, GPN3 / RFU, C9orf123 / Fold change vs veh, C9orf123 / RFU, N4BP2L2 / Fold change vs veh, N4BP2L2 / RFU, ARFIP1 / Fold change vs veh, ARFIP1 / RFU, FAM179B / Fold change vs veh, FAM179B / RFU, BCL10 / Fold change vs veh, BCL10 / RFU, UHRF1BP1L / Fold change vs veh, UHRF1BP1L / RFU, BET1 / Fold change vs veh, BET1 / RFU, CNOT2 / Fold change vs veh, CNOT2 / RFU, ZNF268 / Fold change vs veh, ZNF268 / Fold change vs veh, ZNF507 / RFU, DGCR2 / Fold change vs veh, DGCR2 / RFU, WDSUB1 / Fold change vs veh, WDSUB1 / Fold change vs veh, HSP90B1 /// MIR3652 / RFU, ADSS / Fold change vs veh, ADSS / RFU, GK / Fold change vs veh, GK / RFU, ZNF148 / Fold change vs veh, ZNF148 / RFU, TAF9 / Fold change vs veh, TAF9 / RFU, SLC1A5 / Fold change vs veh, SLC1A5 / RFU, SLMO2 / Fold change vs veh, SLMO2 / RFU, ABCC4 / Fold change vs veh, ABCC4 / RFU, LOC101060439 /// RAP1B / Fold change vs veh, LOC101060439 /// RAP1B / RFU, RFX7 / Fold change vs veh, RFX7 / RFU, GTPBP10 / Fold change vs veh, GTPBP10 / RFU, CNEP1R1 / Fold change vs veh, CNEP1R1 / RFU, BIVM-ERCC5 /// ERCC5 / Fold change vs veh, BIVM-ERCC5 /// ERCC5 / RFU, ILF3 / Fold change vs veh, ILF3 / RFU 11762660_at / Fold change /veh 11762660_at / RFU VCAN (11757783_s_at) / Fold change /veh VCAN (11757783_s_at) / RFU DDX43 (11728927_at) / Fold change /veh DDX43 (11728927_at) / RFU KRT8 (11758188_x_at) / Fold change /veh KRT8 (11758188_x_at) / RFU NKD1 (11759106_at) / Fold change /veh NKD1 (11759106_at) / RFU SRD5A1 (11742802_a_at) / Fold change /veh SRD5A1 (11742802_a_at) / RFU TPSAB1 /// TPSB2 (11721975_s_at) / Fold change /veh TPSAB1 /// TPSB2 (11721975_s_at) / RFU GSTM3 (11746129_a_at) / Fold change /veh GSTM3 (11746129_a_at) / RFU IL23R (11737362_x_at) / Fold change /veh IL23R (11737362_x_at) / RFU TMEM51 (11727254_a_at) / Fold change /veh TMEM51 (11727254_a_at) / RFU PIWIL2 (11732686_x_at) / Fold change /veh PIWIL2 (11732686_x_at) / RFU ORM1 (11744905_x_at) / Fold change /veh ORM1 (11744905_x_at) / RFU CCDC152 (11743942_at) / Fold change /veh CCDC152 (11743942_at) / RFU ECM1 (11717891_a_at) / Fold change /veh ECM1 (11717891_a_at) / RFU IL23R (11748794_a_at) / Fold change /veh IL23R (11748794_a_at) / RFU TNFAIP8L3 (11732012_x_at) / Fold change /veh TNFAIP8L3 (11732012_x_at) / RFU MBOAT4 (11741988_at) / Fold change /veh MBOAT4 (11741988_at) / RFU 11764193_at / Fold change /veh 11764193_at / RFU TMEM53 (11763286_at) / Fold change /veh TMEM53 (11763286_at) / RFU MAGEB2 (11727129_at) / Fold change /veh MAGEB2 (11727129_at) / RFU TMEM200A (11744735_a_at) / Fold change /veh TMEM200A (11744735_a_at) / RFU CCDC152 (11751479_a_at) / Fold change /veh CCDC152 (11751479_a_at) / RFU FAM211A (11726209_a_at) / Fold change /veh FAM211A (11726209_a_at) / RFU RGS16 (11746705_a_at) / Fold change /veh RGS16 (11746705_a_at) / RFU VCAN (11755009_s_at) / Fold change /veh VCAN (11755009_s_at) / RFU RHOB (11743442_s_at) / Fold change /veh RHOB (11743442_s_at) / RFU RGS16 (11720943_a_at) / Fold change /veh RGS16 (11720943_a_at) / RFU RGS16 (11720944_at) / Fold change /veh RGS16 (11720944_at) / RFU, VPS4B / Fold change vs veh, VPS4B / RFU, CREB1 / Fold change vs veh, CREB1 / RFU, DNAJC13 / Fold change vs veh, DNAJC13 / RFU, GNAQ / Fold change vs veh, GNAQ / RFU, CDK5R1 / Fold change vs veh, CDK5R1 / RFU, ZRANB3 / Fold change vs veh, ZRANB3 / RFU, CUL4A / Fold change vs veh, CUL4A / RFU, CCNY / Fold change vs veh, CCNY / RFU, UFL1 / Fold change vs veh, UFL1 / RFU, COG3 / Fold change vs veh, COG3 / RFU, DIAPH2 / Fold change vs veh, DIAPH2 / RFU, SKA2 / Fold change vs veh, SKA2 / RFU, AFF3 / Fold change vs veh, AFF3 / RFU, LMF1 / Fold change vs veh, LMF1 / RFU, IPO11 / Fold change vs veh, IPO11 / RFU, DFFB / Fold change vs veh, DFFB / RFU, FOXP1 / Fold change vs veh, FOXP1 / RFU, CARD8 / Fold change vs veh, CARD8 / RFU, STRN3 / Fold change vs veh, STRN3 / RFU, ADK / Fold change vs veh, ADK / RFU, RASSF2 / Fold change vs veh, RASSF2 / RFU, WIPF1 / Fold change vs veh, WIPF1 / RFU, LARP1B / Fold change vs veh, LARP1B / RFU, RASA1 / Fold change vs veh, RASA1 / RFU, RB1 / Fold change vs veh, RB1 / RFU, PPFIA1 / Fold change vs veh, PPFIA1 / RFU, MAT2A / Fold change vs veh, MAT2A / RFU, CCT5 / Fold change vs veh, CCT5 / RFU, WDR92 / Fold change vs veh, WDR92 / RFU, CUX1 / Fold change vs veh, CUX1 / RFU, TTC7A / Fold change vs veh, TTC7A / RFU, TMEM135 / Fold change vs veh, TMEM135 / RFU, DEPTOR / Fold change vs veh, DEPTOR / RFU, CPM / Fold change vs veh, CPM / RFU, DNAJB6 / Fold change vs veh, DNAJB6 / RFU, CACNA2D3 / Fold change vs veh, CACNA2D3 / RFU, DTX4 / Fold change vs veh, DTX4 / RFU, TFCP2 / Fold change vs veh, TFCP2 / RFU, GMCL1 /// GMCL1P1 / Fold change vs veh, GMCL1 /// GMCL1P1 / RFU, AEBP2 / Fold change vs veh, AEBP2 / RFU, SNHG1 /// SNORD22 /// SNORD25 /// SNORD26 /// SNORD27 /// SNORD28 /// SNORD29 /// SNORD31 / Fold change vs veh, SNHG1 /// SNORD22 /// SNORD25 /// SNORD26 /// SNORD27 /// SNORD28 /// SNORD29 /// SNORD31 / Fold change (Aza/veh), C12orf56 (ProbeSet 11735607_a_at) / Fold change (ACY-1035/veh), C12orf56 (ProbeSet 11735607_a_at) / Fold change (Aza/veh), FGFR1OP (ProbeSet 11751329_s_at) / Fold change (ACY-1035/veh), FGFR1OP (ProbeSet 11751329_s_at) / Fold change (Aza/veh), VPS36 (ProbeSet 11739960_a_at) / Fold change (ACY-1035/veh), VPS36 (ProbeSet 11739960_a_at) / RFU SYPL1 (11715823_x_at) / Fold change /veh SYPL1 (11715823_x_at) / RFU IGFBP7 (11715501_s_at) / Fold change /veh IGFBP7 (11715501_s_at) / RFU REEP3 (11722064_at) / Fold change /veh REEP3 (11722064_at) / RFU IGLL1 (11728026_x_at) / Fold change /veh IGLL1 (11728026_x_at): dose or concentration left out as unconfirmed. The conditions noted are these: MV-4-11 cells, 48 hours.

Consider `Nc1ncn([C@@H]2O[C@H](CO)[C@@H](O)[C@H]2O)c(=O)n1` [azacitidine], for which the “RFU PLEKHG5 (11743358_a_at)” value came to 38.46 RFU.
